Measurements: patent publication US11718622B2, “Heterocyclic adenosine receptor antagonists” (Exelixis, Inc., priority 2020, dated 2023)

Key:
[1] = biological target: Adenosine A2a (ADORA2A) receptor (Homo sapiens (Human), UniProt P29274); assay: ADORA2A Receptor Binding Assay; conditions: radioligand binding, membrane stock
In short: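 Test compounds incubated with A2a receptor membranes and a ³H-labelled radioligand for 2 hours at room temperature, then filtered through PEI-presoaked GF/C plates and washed. Filter-bound ³H counted by scintillation; % inhibition calculated from background-subtracted signal relative to high control.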

[2] = biological target: Adenosine A2B (ADORA2B) receptor (Homo sapiens (Human), UniProt P29275); assay: ADORA2B Receptor Binding Assay; conditions: radioligand binding, membrane stock
Adenosine A2B (ADORA2B) receptor, sequence (P29275 whole entry): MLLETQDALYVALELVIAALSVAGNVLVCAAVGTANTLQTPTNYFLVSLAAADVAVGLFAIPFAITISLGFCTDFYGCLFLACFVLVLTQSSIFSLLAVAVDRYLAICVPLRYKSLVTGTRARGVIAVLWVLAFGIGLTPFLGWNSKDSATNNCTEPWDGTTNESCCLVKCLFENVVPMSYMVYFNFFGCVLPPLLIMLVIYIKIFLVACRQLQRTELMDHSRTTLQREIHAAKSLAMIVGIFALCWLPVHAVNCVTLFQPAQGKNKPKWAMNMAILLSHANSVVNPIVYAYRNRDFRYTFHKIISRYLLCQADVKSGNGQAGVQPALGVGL
In short: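 Radioligand competition binding on human A2B receptor membranes, 1 h at room temperature, then filtration through BSA-presoaked GF/C filters and ³H counting by scintillation. Inhibition expressed as % of high control after background subtraction.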

Adenosine A2a (ADORA2A) receptor, sequence (P29274 whole entry): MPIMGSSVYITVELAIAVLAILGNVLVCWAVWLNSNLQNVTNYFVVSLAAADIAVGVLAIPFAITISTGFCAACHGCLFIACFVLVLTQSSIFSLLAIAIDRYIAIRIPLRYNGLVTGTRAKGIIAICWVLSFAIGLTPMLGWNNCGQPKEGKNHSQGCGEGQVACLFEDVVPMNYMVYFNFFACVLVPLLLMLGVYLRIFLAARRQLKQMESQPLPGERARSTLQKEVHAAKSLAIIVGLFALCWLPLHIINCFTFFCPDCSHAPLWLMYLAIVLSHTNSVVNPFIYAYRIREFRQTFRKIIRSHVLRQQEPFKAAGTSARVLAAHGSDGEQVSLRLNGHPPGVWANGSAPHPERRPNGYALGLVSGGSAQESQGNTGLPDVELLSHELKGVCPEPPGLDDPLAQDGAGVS

SMILES	IC50 [1] [nM]	IC50 [2] [nM]
Cc1nc2c(Cl)c(N)nc(-c3ccc(F)cc3)n2n1 [Compound 80, 8-chloro-5-(4-fluorophenyl)-2-methyl-[1,2,4]triazolo[1,5-c]pyrimidin-7-amine]	10 to 100	100 to 1000
Cc1cn2cc(NC(=O)C3CC3)nc(-c3ccc(C)o3)c2n1 [Compound 199, N-[2-methyl-8-(5-methylfuran-2-yl)imidazo[1,2-a]pyrazin-6-yl]cyclopropanecarboxamide]	< 10	10 to 100
Cc1nc2c(-c3ccco3)nc(NC(=O)C3CC3)cn2n1 [Compound 180, N-[8-(furan-2-yl)-2-methyl-[1,2,4]triazolo[1,5-a]pyrazin-6-yl]cyclopropanecarboxamide]	< 10	< 10
Cc1nc2cc(NC(=O)C3CC3)nc(-c3ccc(C)o3)n2n1 [Compound 2, N-(2-methyl-5-(5-methylfuran-2-yl)-[1,2,4]triazolo[1,5-c]pyrimidin-7-yl)cyclopropanecarboxamide]	< 10	< 10
Cc1nc2c(Cl)c(N)nc(-c3ccc(F)c(F)c3)n2n1 [Compound 141, 8-chloro-5-(3,4-difluorophenyl)-2-methyl-[1,2,4]triazolo[1,5-c]pyrimidin-7-amine]	10 to 100	100 to 1000
Cc1nc2cc(NC(=O)C3CC3)nc(-c3ccc(C(C)C)o3)n2n1 [Compound 55, N-[2-methyl-5-(5-propan-2-ylfuran-2-yl)-[1,2,4]triazolo[1,5-c]pyrimidin-7-yl]cyclopropanecarboxamide]	< 10	100 to 1000
Cc1nc2c(Br)c(N)nc(-c3ccc(C)o3)n2n1 [Compound 16, 8-bromo-2-methyl-5-(5-methylfuran-2-yl)-[1,2,4]triazolo[1,5-c]pyrimidin-7-amine]	< 10	< 10
Cc1cn2c(Cl)c(N)nc(-c3ccc(F)cc3)c2n1 [Compound 202, 5-chloro-8-(4-fluorophenyl)-2-methylimidazo[1,2-a]pyrazin-6-amine]	100 to 1000	100 to 1000
Cc1nc2cc(NC(=O)N3CC[C@@H](O)C3)nc(-c3ccco3)n2n1 [Compound 104, (3R)-N-[5-(furan-2-yl)-2-methyl-[1,2,4]triazolo[1,5-c]pyrimidin-7-yl]-3-hydroxypyrrolidine-1-carboxamide]	100 to 1000	> 1000
Cc1nc2c(Cl)c(N)nc(-c3ccncc3)n2n1 [Compound 79, 8-chloro-2-methyl-5-pyridin-4-yl-[1,2,4]triazolo[1,5-c]pyrimidin-7-amine]	10 to 100	100 to 1000
CC(=O)Nc1cc2nc(C(C)C)nn2c(-c2ccco2)n1 [Compound 48, N-[5-(furan-2-yl)-2-propan-2-yl-[1,2,4]triazolo[1,5-c]pyrimidin-7-yl]acetamide]	< 10	< 10
Cc1nc2c(-c3ccc(F)cc3)nc(N)c(Cl)n2n1 [Compound 170, 5-chloro-8-(4-fluorophenyl)-2-methyl-[1,2,4]triazolo[1,5-a]pyrazin-6-amine]	< 10	10 to 100
CCC(=O)Nc1cc2nc(C)nn2c(-c2ccc(C)o2)n1 [Compound 5, N-[2-methyl-5-(5-methylfuran-2-yl)-[1,2,4]triazolo[1,5-c]pyrimidin-7-yl]propanamide]	< 10	10 to 100
CC(=O)c1cccc(-c2nc(N)cc3nc(C)nn23)c1 [Compound 95, 1-[3-(7-amino-2-methyl-[1,2,4]triazolo[1,5-c]pyrimidin-5-yl)phenyl]ethanone]	> 1000	> 1000
Cc1nc2c3c(nc(-c4ccc(C)o4)n2n1)NCC3(C)C [Compound 28, 4,12,12-trimethyl-7-(5-methylfuran-2-yl)-3,5,6,8,10-pentazatricyclo[7.3.0.0^2,6]dodeca-1(9),2,4,7-tetraene]	10 to 100	100 to 1000
Cc1nc2cc(NC(=O)C3CNC3)nc(-c3ccc(C)o3)n2n1 [Compound 14, N-[2-methyl-5-(5-methylfuran-2-yl)-[1,2,4]triazolo[1,5-c]pyrimidin-7-yl]azetidine-3-carboxamide]	< 10	10 to 100
Cc1nc2c(Cl)c(N)nc(-c3ccccn3)n2n1 [Compound 74, 8-chloro-2-methyl-5-pyridin-2-yl-[1,2,4]triazolo[1,5-c]pyrimidin-7-amine]	10 to 100	> 1000
CC(=O)Nc1cn2cc(C)nc2c(-c2ccco2)n1 [Compound 211, N-[8-(furan-2-yl)-2-methylimidazo[1,2-a]pyrazin-6-yl]acetamide]	10 to 100	10 to 100
Cc1cn2cc(N)nc(-c3ccc(C)o3)c2n1 [Compound 200, 2-methyl-8-(5-methylfuran-2-yl)imidazo[1,2-a]pyrazin-6-amine]	100 to 1000	100 to 1000
CCNC(=O)Nc1cn2cc(C)nc2c(-c2ccco2)n1 [Compound 223, 1-ethyl-3-[8-(furan-2-yl)-2-methylimidazo[1,2-a]pyrazin-6-yl]urea]	< 10	10 to 100

Continued, values first:

IC50 [1] [nM]	IC50 [2] [nM]	SMILES
> 1000	> 1000	Cc1nc2c(Cl)c(N)nc(-c3ccccc3Cl)n2n1 [Compound 84, 8-chloro-5-(2-chlorophenyl)-2-methyl-[1,2,4]triazolo[1,5-c]pyrimidin-7-amine]
< 10	< 10	Cc1ccc(-c2nc(N)c(Cl)n3nc(C)nc23)cc1 [Compound 184, 5-chloro-2-methyl-8-(4-methylphenyl)-[1,2,4]triazolo[1,5-a]pyrazin-6-amine]
< 10	10 to 100	Cc1nc2cc(NC(=O)C3CN(C)C3)nc(-c3ccc(C)o3)n2n1 [Compound 18, 1-methyl-N-[2-methyl-5-(5-methylfuran-2-yl)-[1,2,4]triazolo[1,5-c]pyrimidin-7-yl]azetidine-3-carboxamide]
10 to 100	> 1000	Cc1cccc(-c2nc(N)c(Cl)c3nc(C)nn23)n1 [Compound 76, 8-chloro-2-methyl-5-(6-methylpyridin-2-yl)-[1,2,4]triazolo[1,5-c]pyrimidin-7-amine]
< 10	10 to 100	Cc1nc2cc(NC(=O)NCCN3CCOCC3)nc(-c3ccco3)n2n1 [Compound 159, 1-[5-(furan-2-yl)-2-methyl-[1,2,4]triazolo[1,5-c]pyrimidin-7-yl]-3-(2-morpholin-4-ylethyl)urea]
< 10	10 to 100	Cc1nc2c(-c3ccc(F)cc3)nc(N)c(Br)n2n1 [Compound 171, 5-bromo-8-(4-fluorophenyl)-2-methyl-[1,2,4]triazolo[1,5-a]pyrazin-6-amine]
< 10	10 to 100	O=C(Nc1cc2nc(CF)nn2c(-c2ccco2)n1)C1CC1 [Compound 149, N-[2-(fluoromethyl)-5-(furan-2-yl)-[1,2,4]triazolo[1,5-c]pyrimidin-7-yl]cyclopropanecarboxamide]
> 1000	> 1000	CC(=O)Nc1cc2nc(C)nn2c(-c2ccc(S(=O)(=O)N(C)C)cc2)n1 [Compound 117, N-[5-[4-(dimethylsulfamoyl)phenyl]-2-methyl-[1,2,4]triazolo[1,5-c]pyrimidin-7-yl]acetamide]
10 to 100	100 to 1000	CC(=O)Nc1cc2nc(C(C)C)nn2c(-c2cnco2)n1 [Compound 49, N-[5-(1,3-oxazol-5-yl)-2-propan-2-yl-[1,2,4]triazolo[1,5-c]pyrimidin-7-yl]acetamide]
100 to 1000	100 to 1000	Cc1cccc(-c2nc(N)c(Cl)n3cc(C)nc23)c1 [Compound 207, 5-chloro-2-methyl-8-(3-methylphenyl)imidazo[1,2-a]pyrazin-6-amine]
< 10	10 to 100	CC(C)c1nc2c(Cl)c(N)nc(-c3ccccc3)n2n1 [Compound 86, 8-chloro-5-phenyl-2-propan-2-yl-[1,2,4]triazolo[1,5-c]pyrimidin-7-amine]
< 10	< 10	Cc1ccc(-c2nc(NC(=O)C3CC3)cn3nc(C(F)(F)F)nc23)o1 [Compound 189, N-[8-(5-methylfuran-2-yl)-2-(trifluoromethyl)-[1,2,4]triazolo[1,5-a]pyrazin-6-yl]cyclopropanecarboxamide]
< 10	10 to 100	CC(=O)Nc1cc2nc(C3CCC3)nn2c(-c2ccc(C)o2)n1 [Compound 63, N-[2-cyclobutyl-5-(5-methylfuran-2-yl)-[1,2,4]triazolo[1,5-c]pyrimidin-7-yl]acetamide]
< 10	10 to 100	Cc1cc2c(nc(-c3ccc(C)o3)n3nc(C(C)C)nc23)[nH]1 [Compound 75, 11-methyl-7-(5-methylfuran-2-yl)-4-propan-2-yl-3,5,6,8,10-pentazatricyclo[7.3.0.0^2,6]dodeca-1(9),2,4,7,11-pentaene]
100 to 1000	> 1000	Cc1nc2cc(NC(=O)C3CC3)nc(-c3cnn(C)c3)n2n1 [Compound 70, N-[2-methyl-5-(1-methylpyrazol-4-yl)-[1,2,4]triazolo[1,5-c]pyrimidin-7-yl]cyclopropanecarboxamide]
< 10	10 to 100	CC(=O)Nc1cc2nc(C)nn2c(-c2ccco2)n1 [Compound 37, N-[5-(furan-2-yl)-2-methyl-[1,2,4]triazolo[1,5-c]pyrimidin-7-yl]acetamide]
< 10	< 10	Cc1ccc(-c2nc(NC(=O)C3CC3)cn3cc(C(F)(F)F)nc23)o1 [Compound 197, N-[8-(5-methylfuran-2-yl)-2-(trifluoromethyl)imidazo[1,2-a]pyrazin-6-yl]cyclopropanecarboxamide]
> 1000	> 1000	Cc1nc2cc(NC(=O)N3CC[C@H](O)C3)nc(-c3ccco3)n2n1 [Compound 107, (3S)-N-[5-(furan-2-yl)-2-methyl-[1,2,4]triazolo[1,5-c]pyrimidin-7-yl]-3-hydroxypyrrolidine-1-carboxamide]
